Assay results published in US6765014B1, “1-Acyl-7-nitroindoline derivatives, their preparation and their use as photocleavable precursors” (Medical Research Council, priority 1999, dated 2004).
Each block holds one compound with its values, some of them ahead of it.

What was measured:
glutamate ion channels = experiment: Whole-cell patch clamp of cultured rat cerebellar granule neurones, with and without flash photolysis; type: cell-based
Procedure: The caged L-glutamate reagent 10 was tested in primary cultures of rat cerebellar granule neurones for its pharmacological actions and ability to effect photolytic activation of glutamate ion channels. All electrophysiological experiments were performed in Mg^2+-free mammalian Ringer's solution containing 100 μM glycine. Cells were voltage clamped at −65 mV with whole-cell patch clamp (17) and the glutamate sensitivity was established by responses to 20 ms pulses of L-glutamate, applied at a frequency of 0.25 Hz by iontophoresis from a 1-μm tipped glass pipette. […] The latter most likely arises from glutamate diffusion away from the photolyzed region. The time course of the initial decline may represent desensitization of non-NMDA glutamate channels.
During the slow decline there was a clear increase in the low frequency noise of the glutamate-activated current compared to baseline, consistent with gating of glutamate-activated ion channels.

[1] = Comparative photolysis in aqueous solution (Rayonet photochemical reactor, UV-VIS); type: physicochemical; details: for Photolysis upon irradiation: near-UV light, UV-visible spectrum of irradiated solution, conditions for 24 not given; for Time required for half-maximal photolysis: pH 7 (5:95), 16×350 nm lamps
Procedure: Comparative photolysis of methyl 1-acetyl-7-nitroindoline-5-acetate 16 and 1-acetyl-4-methoxy-7-nitroindoline 25 in aqueous solution. Separate 1 ml samples of each compound [0.0896 mM in EtOH-25 mM Na phosphate, pH 7 (5:95)] in 1 cm path length optical cells were photolysed simultaneously for 0, 0.25, 0.5, 1, 2, 4, 6 and 8 min in a Rayonet photochemical reactor (16×350 nm lamps) and UV-VIS spectra were recorded after each irradiation period. FIGS. 4 and 5 show the time course of photolysis for 16 and 25 respectively.
Comparative photolysis of 1-acetyl-4-methoxy-7-nitroindoline 25 and 1-acetyl-4-methoxy-[…] 30 in aqueous solution. Separate 1 ml samples of each compound [0.0748 mM in EtOH-25 mM Na phosphate, pH 7 (5:95)] in 1 cm path length optical cells were photolysed simultaneously for 0, 0.25, 0.5, 1, 2, 4 and 6 min in a Rayonet photochemical reactor (16×350 nm lamps) and UV-VIS spectra were recorded after each irradiation period. FIGS. 6 and 7 show the time course of photolysis for 25 and 30 respectively.
With the relative merits of the substitution pattern on the aromatic ring established, the effect of the more powerfully electron-releasing 4-dimethylamino group was probed. The required indole 32 was prepared via the semicarbazone 31 from N,N-dimethyl-2-methyl-3-nitroaniline by a modified Leimgruber-Batcho procedure (30). […] Nitration as before with NaNO3-TFA gave a complex mixture, from which the 5-nitro compound 34 was separated by chromatography. To achieve isolation of the required 7-nitro isomer 36, the remaining material was hydrolysed and the products chromatographed. The 5,7-dinitroindoline 35 was obtained in pure form, together with fractions that contained the presumed 7-nitroindoline. Acetylation of these combined fractions provided the desired material 36 in poor overall yield. Its structure was confirmed by nOe enhancement of the 5-proton upon irradiation of the dimethylamino signal. In the related 5-nitro isomer 34, irradiation of the dimethylamino signal had no effect on the integrated intensity of either aromatic proton signal. […] The series of compounds described in this latter series of experiments could be coupled to effector moieties, e.g. as described for compounds 10 and 21. [drawing 8] [drawing 9] [drawing 10]

[2] = Photolysis and product analysis (HPLC and quantitative amino acid analysis); type: physicochemical; details: for Extent of photolysis (conversion): 0.5 mM, 25 mM ammonium phosphate pH 7.0, 3 min mercury arc lamp; for Measured concentration of glutamate as % of value calculated from extent of photolysis: 25 mM ammonium phosphate pH 7.0 ± 1 mM dithiothreitol; for Stoichiometry of effector release upon photolysis: quantitative amino acid analysis of part-photolyzed solutions
Procedure: Separate solutions of 10 (each 0.50 mM) in 25 mM ammonium phosphate, pH 7.0±1 mM dithiothreitol were irradiated in a 1-mm path length cell for 3 min using light from a mercury arc lamp which passed through Hoya 340 and Schott WG 305 filters before illuminating the cell. The extent of photolysis was determined by reverse-phase HPLC (mobile phase 25 mM Na phosphate, pH 6.0+10% MeOH, 1.5 ml/min). Quantification was based on peak heights compared to those of unphotolyzed controls. Aliquots of the photolyzed solutions were also subjected to quantitative amino acid analysis (see General Procedures).
Photolysis and product analysis for compound 21. A solution (0.5 mM) of 21 in 25 mM ammonium phosphate, pH 7.0 was irradiated as described for compound 10 and the photolyzed solution was quantified by reverse-phase HPLC and amino acid analysis.

[3] = Hydrolytic stability of 1-acyl-7-nitroindolines (reverse-phase HPLC); type: physicochemical; details: 62.5 mM Na phosphate, pH 12.01, 30° C.
Procedure: The extent of hydrolysis was determined by reverse-phase HPLC analysis (mobile phase 25 mM Na phosphate, pH 6.0+10% MeOH, 1.5 ml/min). […] Quantification was based on peak heights compared to those of unhydrolysed controls (to). First-order rate constants for hydrolysis were obtained from single exponential fits to the data.
In addition to the release rate of the bioeffector species following flash irradiation, important properties of any caged compound include stability in aqueous solution and its extent of photolysis upon a single flash irradiation.
In this context, hydrolytic stability refers to the amide bond. […] The use of the free acids avoided analytical complications from the much faster cleavage of the ester group.

[4] = Quantum yield estimation by laser flash irradiation (347 nm); type: physicochemical
Procedure: Quantum yield estimation for 10. A solution of 1-(2-nitrophenylethyl) phosphate and 10 (each 0.50 mM) together with dithiothreitol (5 mM) was prepared in 25 mM ammonium phosphate, pH 7.0. Aliquots of the solution ([…]) in a 1-mm path length cell were each subjected to one 50-ns flash from a frequency-doubled ruby laser, that delivered 347 nm light with an average energy of 90 mJ (range 83-104 mJ). The combined irradiated solutions were analyzed by reverse-phase HPLC (mobile phase 25 mM Na phosphate, pH 6.0+40% MeOH, 1.5 ml/min). Retention times were 4.2 and 7.2 min for 10 and 1-(2-nitrophenylethyl) phosphate respectively. Quantification was based on peak heights compared to those of the unphotolyzed control. Extinction coefficients at 347 nm used to calculate the relative quantum yields were 2720 and 510 M^−1cm^−1 for 10 and 1-(2-nitrophenylethyl) phosphate respectively. Photolysis and product analysis for compounds 10 and 18.
The product quantum yield (Qp) for photolysis of the glutamate derivative 10 was determined by laser flash irradiation (347 nm) of a solution containing 10 and 1-(2-nitrophenyl)ethyl phosphate (16) (both 0.5 mM in pH 7 phosphate buffer). Conversions by a single flash (˜90 mJ) were 9.7 and 23% respectively (reverse-phase HPLC), leading to Qp=0.043 by comparison with the known value (16) (0.54) for the caged phosphate and after correction for the different extinction coefficients at the irradiation wavelength. Although the value of Qp is low, the relatively high extinction coefficient at ˜350 nm (˜2700 M^−1cm^−1) compared to that of “classical” 2-nitrobenzyl-type caged compounds (˜600 M^−1cm^−1) enables similar photolytic efficiency to be achieved.

[5] = Relative photolysis efficiencies of 8 and 11 (xenon arc lamp, HPLC); type: physicochemical
Procedure: Relative photolysis efficiencies of 8 and 11. A solution containing both 8 and 11 (each 0.5 mM) in 25 mM Na phosphate, pH 7.0 was irradiated in a 1-mm path length cell using light from a 100 W xenon arc lamp which passed through Hoya 340 and Schott WG 305 filters before. illuminating the cell. The extent of photolysis of each compound was determined by reverse-phase HPLC analysis (mobile phase 10 mM Na phosphate, pH 6.0+50% MeOH, 1.5 mL/min). Retention times for 8 and 11 were 3.8 and 7.8 min respectively. After 2 min irradiation, the extents of conversion for compounds 8 and 11 were 40 and 16% respectively.
Upon comparative photolysis of the 1-glutaryl derivatives 8 and 11 in aqueous solutions at pH 7 and without excluding atmospheric oxygen, the bromo compound 11 was indeed converted ˜2.5-fold less efficiently than 8. Photolysis of 8 proceeded cleanly, as shown by an isosbestic point at 365 nm in spectra of a solution photolyzed for increasing times to at least 65% conversion, but the photoproduct of the protecting group was not the 7-nitroindoline 12 (λmax 450 nm) expected from the previous report (6a). […] Further confirmation of the presence of a nitroso group was that treatment of 13, R=CH2CO2Me) with a thiol readily abolished the 412 nm chromophore, presumably by conversion to the corresponding hydroxylamine (11, 12). […] In control experiments, photolysis of the glutaryl compound 8 in CH2Cl2-dioxane-H2O (2:3:0.05) cleanly gave the expected (6a) nitroindoline 12.

[6] = 0.0748 mM in EtOH-25 mM Na phosphate
[7] = 0.0896 mM in EtOH-25 mM Na phosphate

Compound: COC(=O)Cc1cc(N=O)c2[nH]ccc2c1 [Compound 13, Methyl 7-nitrosoindole-5-acetate]
- Effect of photolysis by-product on glutamate receptors or resting membrane properties (glutamate ion channels; control experiments during and after photolysis): no adverse effect

- melting point: 177 to 178 °C
- Photolysis upon irradiation [1]: no detectable photolysis
Compound: CC(=O)N1CCc2c(N(C)C)ccc([N+](=O)[O-])c21 [Compound 36, 1-acetyl-4-N,N-dimethylamino-7-nitroindoline]

- Extent of photolysis (conversion) [2]: ~51%
- Measured concentration of glutamate as % of value calculated from extent of photolysis [2]: 97-108%
Compound: N[C@@H](CCC(=O)N1CCc2cc(CC(=O)O)cc([N+](=O)[O-])c21)C(=O)O [Compound 18, 1-[S-(4-amino-4-carboxybutanoyl)]-7-nitroindoline-5-acetic acid]

- Time required for half-maximal photolysis [1, 6]: ~0.4 min
- Time required for half-maximal photolysis [1, 7]: ~0.4 min
- Fold more efficient photolysis than 30 ([1]; aqueous solution): ~2 fold
- Fold more efficient photolysis than 16 ([1]; aqueous solution, equal concentration): ~3 fold
Compound: COc1ccc([N+](=O)[O-])c2c1CCN2C(C)=O [Compound 25, 1-Acetyl-4-methoxy-7-nitroindoline]

- Time required for half-maximal photolysis [1, 7]: ~1.2 min
Compound: COC(=O)Cc1cc2c(c([N+](=O)[O-])c1)N(C(C)=O)CC2 [Compound 16, Methyl 1-acetyl-7-nitroindoline-5-acetate]

- Extent of photolysis (conversion) [2]: 38%
- Stoichiometry of effector release upon photolysis [2]: stoichiometric release of GABA
Compound: COC(=O)Cc1cc2c(c([N+](=O)[O-])c1)N(C(=O)CCCN)CC2 [Compound 21, Methyl 1-(4-aminobutanoyl)-7-nitroindoline-5-acetate]

- Half-times for hydrolysis (amide hydrolysis) [3]: 6 h
- Extinction coefficient at ~350 nm [4]: ~2700 M⁻¹ cm⁻¹
- Conversion by a single flash ([4]; 347 nm laser flash, ~90 mJ, 0.5 mM, pH 7 phosphate buffer): 9.7%
- Product quantum yield (Qp) ([4]; 347 nm, by comparison with caged phosphate, corrected for extinction coefficients): 0.043
- Extinction coefficient at 347 nm ([4]; used to calculate relative quantum yields): 2720 M⁻¹ cm⁻¹
- Extent of photolysis (conversion) [2]: ~35%
- Measured concentration of glutamate as % of value calculated from extent of photolysis [2]: 90-94%
- Stoichiometry of effector release upon photolysis [2]: 1:1 stoichiometry
- Efficiency of glutamate release upon photolysis, 10 vs the salt of its free acid ([2]; separate experiments): equal efficiency
Compound: COC(=O)Cc1cc2c(c([N+](=O)[O-])c1)N(C(=O)CC[C@H](N)C(=O)O)CC2 [Compound 10, Methyl 1-[S-(4-amino-4-carboxybutanoyl)]-7-nitroindoline-5-acetate]
- Effect on peak response to iontophoretic pulses of L-glutamate (glutamate ion channels; 1 mM in bath, no photolysis): did not diminish
- Activation of current in granule neurones by unphotolyzed caged compound (glutamate ion channels; 1 mM in bath, −65 mV, no photolysis): no activation of current
- Time scale of L-glutamate release by flash photolysis (glutamate ion channels; 1 ms light pulse): on the same time scale as the light pulse
- Rise of inward current after flash photolysis, exponential half-time (mean) (glutamate ion channels; 1 ms xenon arc flash, Schott UG11 filter, n=8): 0.74 ms
- Fast decline of inward current, mean half-time (glutamate ion channels; after 1 ms xenon arc flash): 2.9 ms
- Activity at glutamate ion channels of NMDA- and non-NMDA-activated types (glutamate ion channels; unphotolyzed compound): inactive

- Photolysis upon irradiation [1]: photostable
Compound: COC(=O)Cc1cc([N+](=O)[O-])c(OC)c2c1N(C(C)=O)CC2 [Compound 24, Methyl 1-acetyl-4-methoxy-5-nitroindoline-7-acetate]

- Extent of conversion (photolysis) ([5]; after 2 min irradiation, 0.5 mM each, 25 mM Na phosphate pH 7.0, 100 W xenon arc lamp): 16%
- Fold less efficient photolytic conversion than 8 ([5]; aqueous solution pH 7, atmospheric oxygen not excluded): ~2.5 fold
Compound: O=C(O)CCCC(=O)N1CCc2cc(Br)cc([N+](=O)[O-])c21 [Compound 11, 5-Bromo-1-glutaryl-7-nitroindoline]

- Time required for half-maximal photolysis [1, 6]: ~0.9 min
- Fold less efficient photolysis than 25 ([1]; aqueous solution): ~2 fold
Compound: COc1c(C)cc([N+](=O)[O-])c2c1CCN2C(C)=O [Compound 30, 1-Acetyl-4-methoxy-5-methyl-7-nitroindoline]
